# Source: US8691775B2, “Use of drugs that activate P2Y receptors to enhance synaptogenesis” (Back Bay Scientific, LLC, priority 2010, dated 2014)
# Key:
# [1] = tested on: PSD-95 protein in PC12 cells; assay: Level of PSD-95 in PC12 cells incubated with test compound; type: cell-based; settings: incubation 2 or 4 days
# Source text: Postsynaptic protein PSD-95 is a member of the membrane-associated guanylate kinase (MAGUK) family. The protein is almost exclusively located in the postsynaptic density of neurons and is involved in anchoring synaptic proteins. The inventor hypothesized that active agents that increase the level of the PSD-95 protein in cultured cells may be screened for their ability to activate P2Y receptors in animal models.
# PC12 cells, a cell line ultimately derived from neural cells, are maintained in Minimal Essential Medium (MEM; Invitrogen, Carlsbad, Calif.) supplemented with 10% fetal bovine serum (FBS) at 37° C. Experimental incubations are for 2 or 4 days in medium with or without test compounds.
# The activity of each test compound is assessed by determining the effect of each test compound on the level of PSD-95 in the cells.
# brain dendritic spines = assay: Brain dendritic spines in laboratory animals injected intraperitoneally with test compound; type: in vivo; settings: intraperitoneal injection after 6 weeks of diet
# Source text: The laboratory animals are fed a food composition with or without a synthetic diet enriched with uridine, DHA and choline for 6 weeks, and are then intraperitoneally injected with a composition comprising the test compound.
# [2] = rats; cited from earlier work
Compound,level of the PSD-95 protein in tissue culture [1],level of brain dendritic spines in laboratory animals (brain dendritic spines),uridine entering the liver via the portal vein metabolized in a single pass [2]
"O=c1ccn([C@@H]2O[C@H](COP(=O)(O)OP(=O)(O)OP(=O)(O)O)[C@@H](O)[C@H]2O)c(=O)[nH]1 [UTP, uridine 5′-triphosphate]",effective,effective,–
N[C@@H]1[C@H](O)[C@@H](COP(=O)(O)OP(=O)(O)OP(=O)(O)O)O[C@H]1n1ccc(=O)[nH]c1=S [MRS 2698],effective,effective,–
"Nc1ncnc2c1ncn2[C@@H]1O[C@H](COP(=O)(O)CP(=O)(O)OP(=O)(O)O)[C@@H](O)[C@H]1O [α,β-methylene ATP]",effective,effective,–
O=c1ccn([C@@H]2O[C@H](COP(=O)([O-])OP(=O)([O-])O[C@H]3O[C@H](CO)[C@@H](O)[C@H](O)[C@H]3O)[C@@H](O)[C@H]2O)c(=S)[nH]1.[Na+].[Na+] [MRS 2690],effective,effective,–
O=c1ccn([C@@H]2O[C@H](CO)[C@@H](O)[C@H]2O)c(=O)[nH]1 [uridine],–,–,more than 90%
O=c1ccn([C@@H]2O[C@H](COP(=O)([O-])OP(=O)([O-])OP(=O)([O-])[O-])[C@@H](O)[C@H]2O)c(=S)[nH]1.[Na+].[Na+].[Na+].[Na+] [2-ThioUTP tetrasodium salt],effective,effective,–
O=c1[nH]cnc2c1ncn2[C@@H]1O[C@H](COP(=O)(O)OP(=O)(O)OP(=O)(O)O)[C@@H](O)[C@H]1O [ITP],effective,effective,–
O=c1ccn([C@@H]2O[C@H](COP(=O)(O)OP(=O)(O)OP(=O)(O)O)[C@@H](O)[C@H]2O)c(=S)[nH]1 [2-thio-UTP],effective,effective,–
O=c1ccn([C@@H]2O[C@H](COP(=O)(O)OP(=O)(O)OP(=O)(O)OP(=O)(O)OC[C@H]3O[C@@H](n4ccc(=O)[nH]c4=O)[C@H](O)[C@@H]3O)[C@@H](O)[C@H]2O)c(=O)[nH]1 [INS365],effective,effective,–
diuridine triphosphate,effective,effective,–
N[C@@H]1[C@H](O)[C@@H](COP(=O)(O)OP(=O)(O)OP(=O)(O)O)O[C@H]1n1ccc(=O)[nH]c1=O [2′-deoxy-2′-amino-UTP],effective,effective,–
"Nc1ccn([C@@H]2O[C@H](COP(=O)(O)OP(=O)(O)OP(=O)(O)O)[C@@H](O)[C@H]2O)c(=O)n1 [CTP, cytidine-triphosphate]",effective,effective,–
"O=c1ccn([C@@H]2O[C@H](COP(=O)(O)OP(O)(O)=S)[C@@H](O)[C@H]2O)c(=O)[nH]1 [UDPβS, Uridine β-thiodiphosphate]",effective,effective,–
Nc1ncnc2c1ncn2[C@@H]1O[C@H](COP(=O)(O)OP(=O)(O)OP(=O)(O)OP(=O)(O)OC[C@H]2O[C@@H](n3cnc4c(N)ncnc43)[C@H](O)[C@@H]2O)[C@@H](O)[C@H]1O [Ap4A],effective,effective,–
"Nc1ncnc2c1ncn2[C@@H]1O[C@H](COP(=O)(O)CP(=O)([O-])OP(=O)([O-])[O-])[C@@H](O)[C@H]1O.[Na+].[Na+].[Na+] [α,β-Methyleneadenosine 5′-triphosphate trisodium salt]",effective,effective,–
diadenosine pentaphosphate,effective,effective,–
"O=c1ccn([C@@H]2O[C@H](COP(=O)(O)OP(=O)(O)OP(O)(O)=S)[C@@H](O)[C@H]2O)c(=O)[nH]1 [UTPγS, uridine γ-thiophosphate]",effective,effective,–
Nc1ccn([C@H]2C[C@H](O)[C@@H](COP(=O)(O)OP(=O)(O)OP(=O)(O)OP(=O)(O)OC[C@H]3O[C@@H](n4ccc(=O)[nH]c4=O)[C@H](O)[C@@H]3O)O2)c(=O)n1 [denufosol],effective,effective,–
"O=c1ccn([C@@H]2O[C@H](COP(=O)(O)OP(=O)(O)O)[C@@H](O)[C@H]2O)c(=O)[nH]1 [UDP, uridine 5′-diphosphate]",effective,effective,–
CSc1nc(N)c2ncn([C@H]3[C@H](O)[C@H](O)[C@]4(COP(=O)(O)OP(=O)(O)O)C[C@H]34)c2n1 [MRS 2365],effective,effective,–
CSc1nc(N)c2ncn([C@@H]3O[C@H](COP(=O)([O-])OP(=O)([O-])[O-])[C@@H](O)[C@H]3O)c2n1.[Na+].[Na+].[Na+] [2-Methylthio-ADP trisodium salt],effective,effective,–
Nc1nc2c(ncn2[C@@H]2O[C@H](COP(=O)(O)OP(=O)(O)OP(=O)(O)O)[C@@H](O)[C@H]2O)c(=O)[nH]1 [GTP],effective,effective,–
Nc1ncnc2c1ncn2[C@@H]1O[C@H](COP(=O)(O)OP(=O)(O)O)[C@@H](O)[C@H]1O [ADP],effective,effective,–
O=c1ccn(C2OC(COP(=O)([O-])OP(=O)([O-])OP(=O)([O-])S)C(O)C2O)c(=O)[nH]1.[Na+].[Na+].[Na+] (stereo not shown) [UTPγS trisodium salt],effective,effective,–
Nc1ncnc2c1ncn2[C@@H]1O[C@H](COP(=O)(O)OP(=O)([O-])OP(=O)([O-])O)[C@@H](O)[C@H]1O.[Na+].[Na+] [ATP disodium salt],effective,–,–
CCCCCCSc1nc(N)c2ncn([C@@H]3O[C@H](COP(=O)(O)O)[C@@H](O)[C@H]3O)c2n1 [2-(hexylthio) (HT)-AMP],effective,effective,–
Nc1ncnc2c1ncn2[C@@H]1O[C@H](COP(=O)(O)OP(=O)(O)OP(=O)(O)OP(=O)(O)OC[C@H]2O[C@@H](n3ccc(=O)[nH]c3=O)[C@H](O)[C@@H]2O)[C@@H](O)[C@H]1O [Ap4U],effective,effective,–
BzATP triethylammonium salt,effective,effective,–
CSc1nc(N)c2ncn([C@@H]3O[C@H](COP(=O)(O)OP(=O)(O)OP(=O)(O)O)[C@@H](O)[C@H]3O)c2n1 [2-MeSATP],effective,effective,–
O=C(Cn1c(=O)ccn(C2OC(COP(=O)(O)OP(=O)(O)O)C(O)C2O)c1=O)c1ccccc1 (stereo not shown) [PSB 0474],effective,effective,–
